Assay results from patent US9944602B2, “Piperidinone herbicides” (E. I. DU PONT DE NEMOURS AND COMPANY, priority 2014, dated 2018).

Tests used:
Assay type in all cases: in vivo
[1] = test system: barnyardgrass (Echinochloa crus-galli); experiment: Test A preemergence barnyardgrass; conditions: 0 to 100 scale; for pest or weed control at 125 g/ha: 125 g ai/ha
Procedure, shortened: (§1)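 Plants were grown in a blend of loam soil and sand. For preemergence testing the soil was sprayed directly after seeding, while postemergence testing used seedlings 2–10 cm high at one to two leaves; all treatments were rated visually for injury (0–100) after ~10 d.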

[2] = test system: foxtail, giant (giant foxtail, Setaria faberii); experiment: Test A preemergence foxtail, giant; conditions: Setaria faberi, pre-emergence, 240 h, 0 to 100 scale, 0 no effect, 100 complete control, read-out: Foxtail, Giant plant response rating; for pest or weed control at 125 g/ha: 125 g ai/ha; for pest or weed control at 500 g/ha: 500 g ai/ha
Procedure, shortened: as §1

[3] = test system: pigweed (Amaranthus retroflexus); experiment: Test A preemergence pigweed; conditions: Amaranthus retroflexus, pre-emergence, 240 h, 0 to 100 scale, 0 no effect, 100 complete control, read-out: Pigweed plant response rating; for pest or weed control at 125 g/ha: 125 g ai/ha; for pest or weed control at 500 g/ha: 500 g ai/ha
Procedure, shortened: as §1

[4] = test system: barnyardgrass (Echinochloa crus-galli); experiment: Test A postemergence barnyardgrass; conditions: Echinochloa crus-galli, post-emergence, 240 h, 0 to 100 scale, 0 is no effect, 100 is complete control, read-out: Plant response rating, Barnyardgrass; for pest or weed control at 125 g/ha: 125 g ai/ha; for pest or weed control at 500 g/ha: 500 g ai/ha
Procedure, shortened: as §1

[5] = test system: foxtail, giant (giant foxtail, Setaria faberii); experiment: Test A postemergence foxtail, giant; conditions: Setaria faberi, post-emergence, 240 h, 0 to 100 scale, 0 is no effect, 100 is complete control, read-out: Plant response rating, Foxtail, Giant; for pest or weed control at 125 g/ha: 125 g ai/ha; for pest or weed control at 500 g/ha: 500 g ai/ha
Procedure, shortened: as §1

[6] = test system: pigweed (Amaranthus retroflexus); experiment: Test A postemergence pigweed; conditions: Amaranthus retroflexus, post-emergence, 240 h, 0 to 100 scale, 0 is no effect, 100 is complete control, read-out: Plant response rating, Pigweed; for pest or weed control at 125 g/ha: 125 g ai/ha; for pest or weed control at 500 g/ha: 500 g ai/ha
Procedure, shortened: as §1

[7] = test system: wheat (Triticum aestivum); experiment: Test A postemergence wheat; conditions: Triticum aestivum, post-emergence, 240 h, 0 to 100 scale, 0 is no effect, 100 is complete control, read-out: Plant response rating, Wheat; for plant injury at 125 g/ha: 125 g ai/ha; for plant injury at 500 g/ha: 500 g ai/ha
Procedure, shortened: as §1

[8] = test system: corn (Zea mays); experiment: Test A postemergence corn; conditions: Zea mays, post-emergence, 240 h, 0 to 100 scale, 0 is no effect, 100 is complete control; for Corn plant response rating (crop injury, 0 = no effect, 100 = complete kill) at 125 g/ha: 125 g ai/ha; for Corn plant response rating (crop injury, 0 = no effect, 100 = complete kill) at 500 g/ha: 500 g ai/ha
Procedure, shortened: as §1

[9] = test system: rice (Oryza sativa); experiment: Test B flooded paddy test rice; conditions: Oryza sativa, Table B, Flood, 250 g ai/ha, scale 0 to 100, read-out: Plant response rating
Procedure, shortened: (§2)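 Plants at 2-leaf stage in pots flooded 3 cm above soil; compounds applied directly into paddy water, depth kept throughout.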

[10] = test system: sedge, umbrella (small-flower umbrella sedge, Cyperus difformis); experiment: Test B flooded paddy test sedge, umbrella; conditions: Cyperus difformis, Table B, Flood, 250 g ai/ha, scale 0 to 100, read-out: Plant response rating
Procedure, shortened: as §2

[11] = test system: ducksalad (Heteranthera limosa); experiment: Test B flooded paddy test ducksalad; conditions: Heteranthera limosa, Table B, Flood, 250 g ai/ha, scale 0 to 100, read-out: Plant response rating
Procedure, shortened: as §2

[12] = test system: barnyardgrass (Echinochloa crus-galli); experiment: Test B flooded paddy test barnyardgrass; conditions: Echinochloa crus-galli, Table B, Flood, 250 g ai/ha, scale 0 to 100, read-out: Plant response rating
Procedure, shortened: as §2

[13] = test system: rice (Oryza sativa); experiment: Test C flooded paddy test rice; conditions: Table C, Flood, 1000 g ai/ha, scale 0 to 100
Text: (§3) Plant species in the flooded paddy test consisted of rice (Oryza sativa), sedge, umbrella (small-flower umbrella sedge, Cyperus difformis), ducksalad (Heteranthera limosa), and barnyardgrass (Echinochloa crus-galli) grown to the 2-leaf stage for testing. At time of treatment, test pots were flooded to 3 cm above the soil surface, treated by application of test compounds directly to the paddy water, and then maintained at that water depth for the duration of the test. Treated plants and controls were maintained in a greenhouse for 13 to 15 d, after which time all species were compared to controls and visually evaluated. Plant response ratings, summarized in Table C, are based on a scale of 0 to 100 where 0 is no effect and 100 is complete control. A dash (-) response means no test result.

[14] = test system: sedge, umbrella (small-flower umbrella sedge, Cyperus difformis); experiment: Test C flooded paddy test sedge, umbrella; conditions: Table C, Flood, 1000 g ai/ha, scale 0 to 100
Text: as §3

[15] = test system: ducksalad (Heteranthera limosa); experiment: Test C flooded paddy test ducksalad; conditions: Table C, Flood, 1000 g ai/ha, scale 0 to 100
Text: as §3

[16] = test system: barnyardgrass (Echinochloa crus-galli); experiment: Test C flooded paddy test barnyardgrass; conditions: Table C, Flood, 1000 g ai/ha, scale 0 to 100
Text: as §3

[17] = test system: kochia (Kochia scoparia); experiment: Test A preemergence kochia; conditions: Bassia scoparia, pre-emergence, 240 h, 0 to 100 scale, 0 no effect, 100 complete control, read-out: Kochia plant response rating
Procedure, shortened: as §1

[18] = test system: ragweed (common ragweed, Ambrosia elatior); experiment: Test A preemergence ragweed; conditions: Ambrosia artemisiifolia, pre-emergence, 240 h, 0 to 100 scale, 0 no effect, 100 complete control, read-out: Ragweed plant response rating
Procedure, shortened: as §1

[19] = test system: ryegrass, Italian (Italian ryegrass, Lolium multiflorum); experiment: Test A preemergence ryegrass, Italian; conditions: Lolium multiflorum, pre-emergence, 240 h, 0 to 100 scale, 0 no effect, 100 complete control, read-out: Ryegrass, Italian plant response rating
Procedure, shortened: as §1

[20] = test system: kochia (Kochia scoparia); experiment: Test A postemergence kochia; conditions: Bassia scoparia, post-emergence, 240 h, 0 to 100 scale, 0 is no effect, 100 is complete control, read-out: Plant response rating, Kochia
Procedure, shortened: as §1

[21] = test system: ragweed (common ragweed, Ambrosia elatior); experiment: Test A postemergence ragweed; conditions: Ambrosia artemisiifolia, post-emergence, 240 h, 0 to 100 scale, 0 is no effect, 100 is complete control, read-out: Plant response rating, Ragweed
Procedure, shortened: as §1

[22] = test system: ryegrass, Italian (Italian ryegrass, Lolium multiflorum); experiment: Test A postemergence ryegrass, Italian; conditions: Lolium multiflorum, post-emergence, 240 h, 0 to 100 scale, 0 is no effect, 100 is complete control, read-out: Plant response rating, Ryegrass, Italian
Procedure, shortened: as §1

[23] = test system: blackgrass (Alopecurus myosuroides); experiment: Test A postemergence blackgrass; conditions: Alopecurus myosuroides, post-emergence, 240 h, 0 to 100 scale, 0 is no effect, 100 is complete control, read-out: Plant response rating, Blackgrass
Procedure, shortened: as §1

[24] = test system: galium (catchweed bedstraw, Galium aparine); experiment: Test A postemergence galium; conditions: Galium, post-emergence, 240 h, 0 to 100 scale, 0 is no effect, 100 is complete control, read-out: Plant response rating, Galium
Procedure, shortened: as §1

[25] = Echinochloa crus-galli, pre-emergence, 240 h, 0 no effect, 100 complete control, read-out: Barnyardgrass plant response rating

Compound: O=C1NCCC(c2cccc(C(F)(F)F)c2)C1C(=O)Nc1cccc(F)c1F (stereo not drawn) [Compound 9, N-(2,3-difluorophenyl)-2-oxo-4-[3-(trifluoromethyl)phenyl]-3-piperidinecarboxamide]
- Plant response rating, Barnyardgrass ([1]; 500 g ai/ha, 0 is no effect, 100 is complete control): 90
- pest or weed control at 125 g/ha [1, 25]: 90%
- pest or weed control at 125 g/ha [2]: 90%
- pest or weed control at 500 g/ha [2]: 90%
- pest or weed control at 125 g/ha [3]: 0%
- pest or weed control at 500 g/ha [3]: 0%
- pest or weed control at 125 g/ha [4]: 80%
- pest or weed control at 500 g/ha [4]: 90%
- pest or weed control at 125 g/ha [5]: 80%
- pest or weed control at 500 g/ha [5]: 90%
- pest or weed control at 125 g/ha [6]: 0%
- pest or weed control at 500 g/ha [6]: 0%
- plant injury at 125 g/ha [7]: 20%
- plant injury at 500 g/ha [7]: 40%
- Corn plant response rating (crop injury, 0 = no effect, 100 = complete kill) at 125 g/ha [8]: 40%
- Corn plant response rating (crop injury, 0 = no effect, 100 = complete kill) at 500 g/ha [8]: 80%
- plant injury at 250 g/ha [9]: 0%
- pest or weed control at 250 g/ha [10]: 0%
- pest or weed control at 250 g/ha [11]: 90%
- pest or weed control at 250 g/ha [12]: 75%
- Plant response rating [13]: 10
- Plant response rating [14]: 0
- Plant response rating [15]: 98
- Plant response rating [16]: 80

Compound: O=C1NCC[C@H](c2cccc(Cl)c2)[C@H]1C(=O)Nc1cccc(F)c1F [Compound 42, (3R,4S)-4-(3-chlorophenyl)-N-(2,3-difluorophenyl)-2-oxo-3-piperidinecarboxamide]
- pest or weed control at 125 g/ha [1, 25]: 90%
- pest or weed control at 500 g/ha ([1]; Echinochloa crus-galli, pre-emergence, 240 h, 500 g ai/ha, 0 no effect, 100 complete control, read-out: Barnyardgrass plant response rating): 90%
- pest or weed control at 125 g/ha ([17]; 125 g ai/ha): 0%
- pest or weed control at 500 g/ha ([17]; 500 g ai/ha): 0%
- pest or weed control at 125 g/ha ([18]; 125 g ai/ha): 0%
- pest or weed control at 500 g/ha ([18]; 500 g ai/ha): 0%
- pest or weed control at 125 g/ha ([19]; 125 g ai/ha): 40%
- pest or weed control at 500 g/ha ([19]; 500 g ai/ha): 60%
- pest or weed control at 125 g/ha [2]: 90%
- pest or weed control at 500 g/ha [2]: 90%
- pest or weed control at 125 g/ha [3]: 0%
- pest or weed control at 500 g/ha [3]: 10%
- pest or weed control at 125 g/ha [4]: 80%
- pest or weed control at 500 g/ha [4]: 90%
- pest or weed control at 125 g/ha ([20]; 125 g ai/ha): 0%
- pest or weed control at 500 g/ha ([20]; 500 g ai/ha): 30%
- pest or weed control at 125 g/ha ([21]; 125 g ai/ha): 0%
- pest or weed control at 500 g/ha ([21]; 500 g ai/ha): 0%
- pest or weed control at 125 g/ha ([22]; 125 g ai/ha): 40%
- pest or weed control at 500 g/ha ([22]; 500 g ai/ha): 50%
- pest or weed control at 125 g/ha [5]: 90%
- pest or weed control at 500 g/ha [5]: 90%
- pest or weed control at 125 g/ha [6]: 0%
- pest or weed control at 500 g/ha [6]: 0%
- plant injury at 125 g/ha [7]: 0%
- plant injury at 500 g/ha [7]: 60%
- Corn plant response rating (crop injury, 0 = no effect, 100 = complete kill) at 125 g/ha [8]: 10%
- Corn plant response rating (crop injury, 0 = no effect, 100 = complete kill) at 500 g/ha [8]: 60%
- pest or weed control at 125 g/ha ([23]; 125 g ai/ha): 40%
- pest or weed control at 500 g/ha ([23]; 500 g ai/ha): 70%
- pest or weed control at 125 g/ha ([24]; 125 g ai/ha): 0%
- pest or weed control at 500 g/ha ([24]; 500 g ai/ha): 10%
- plant injury at 250 g/ha [9]: 0%
- pest or weed control at 250 g/ha [10]: 0%
- pest or weed control at 250 g/ha [11]: 95%
- pest or weed control at 250 g/ha [12]: 75%
